Test system: B16F10 parental and DTIC-resistant cells
Experiment: In vitro cell growth in response to dacarbazine
Type: cell-based, mouse
Settings: high-dose DTIC treatment
From the text: FIG. 31A-I. Activation of LXRβ Suppresses the In Vivo Growth of Melanoma Lines Resistant to Dacarbazine and Vemurafenib. (FIG. 31A) In vitro cell growth by 2.5×10^4 B16F10 parental cells and in vitro-derived B16F10 DTIC-resistant cells in response to varying doses of dacarbazine (DTIC) added to the cell media for 4 days. n=3. (FIG. 31B-FIG. 31D) Tumor growth by 5×10^4 DTIC-sensitive B16F10 parental cells (FIG. 31B) or 5×10^4 DTIC-resistant B16F10 cells (FIG. 31C) subcutaneously injected into C57BL/6-WT mice. Following tumor growth to 5-10 mm3 in volume, mice were treated with dacarbazine (50 mg/kg, i.p., daily) or a control vehicle and randomly assigned to regular chow or a chow supplemented with GW3965 (100 mg/kg). Final day tumor volume measurements are shown in (FIG. 31D). n=8-16 (FIG. 31B), 7-8 (FIG. 31C). (FIG. 31E-FIG. 31F) Tumor growth by DTIC-sensitive MeWo parental cells and in vivo-derived DTIC-resistant MeWo human melanoma cells in response to DTIC or GW3965 treatments. 5×10^5 cells were subcutaneously injected into NOD Scid gamma mice. After formation of tumors measuring 5-10 mm3 in volume, mice were blindedly assigned to a control treatment, a DTIC treatment (50 mg/kg, i.p., administered daily in 5-day cycles with 2-day off-treatment intervals), or a GW3965-supplemented diet treatment (100 mg/kg). Final day tumor measurements are show in (FIG. 31F). n=6-8. […]

SMILES: CN(C)/N=N/c1[nH]cnc1C(N)=O [dacarbazine]
- increase in viability of DTIC-resistant cells compared to parental B16F10: 7 fold
